Like-named read-outs stand apart in the source and are kept apart here.
Columns and labels:
human STING = target: T1, human STING (Homo sapiens, UniProt Q86WV6); experiment: surface plasmon resonance (SPR)-based hSTING binding assay; conditions: for kon: read-out: Ka; for Kd: KD = Kd/Ka
T1 construct: N-terminal cysteine (thiol coupling handle)
Description: Direct measurement of affinity constants provide assistance in pharmacokinetic and pharmacodynamic studies. In this study, we evaluated the binding affinities between human STING and the synthesized CNDs by the surface plasmon resonance (SPR)-based assay, which loaded minuscule amounts of STING protein on a biosensor chip, and free-labeled samples were directly detected in short measurement times.
hSTING was firstly immobilized on a CM5 sensor chip via a N-terminal cysteine thiol group, without altering conformation or binding activity. […] Kinetic parameters generally give both an aggregation constant (ka) and a disaggregation constant (kd), from which the equilibrium dissociation constant KD can be calculated by KD = Kd/Ka.
SPR system was primed using the manufacturer’s HEPES-buffered saline at 25 °C. CM5 chips were warmed to room temperature on the bench before being added to the system. SPR surfaces were cleaned and conditioned (separate injections of 50 mM NaOH, 1 M NaCl, 0.1% SDS and 10 mM HCl, each for 60 s at 10 μL/min) prior to normalization using the manufacturer’s 70% glycerol solution (GE Healthcare). STING was prepared at 100 μg/mL in SPR running buffer with no DMSO and injected twice onto channel 2 for 600 s at 5 μL/min.
Cyclic dinucleotides were prepared to 1-mM stocks in SPR running buffer. A 12-concentrations dilution series, including a blank containing no substrate, were made and diluted in a 96-well polypropylene Greiner plate. Plates were spun and then placed at 4 °C until experimentation. Experiments were performed at 60 μL/min with data collected every 0.1s.

THP-1 cells = experiment: IFN-β production in THP-1 cells by ELISA; conditions: 1 μM, 18 h
Description: The IFN-β levels in the cell culture supernatants were measured using the ELISA kits (Meimian Biotechnology, Jiangsu, China), according to the manufacturer’s instructions.

[1] = SPR, hSTING immobilized on CM5 chip, 25 °C

T1 sequence (Q86WV6 whole entry): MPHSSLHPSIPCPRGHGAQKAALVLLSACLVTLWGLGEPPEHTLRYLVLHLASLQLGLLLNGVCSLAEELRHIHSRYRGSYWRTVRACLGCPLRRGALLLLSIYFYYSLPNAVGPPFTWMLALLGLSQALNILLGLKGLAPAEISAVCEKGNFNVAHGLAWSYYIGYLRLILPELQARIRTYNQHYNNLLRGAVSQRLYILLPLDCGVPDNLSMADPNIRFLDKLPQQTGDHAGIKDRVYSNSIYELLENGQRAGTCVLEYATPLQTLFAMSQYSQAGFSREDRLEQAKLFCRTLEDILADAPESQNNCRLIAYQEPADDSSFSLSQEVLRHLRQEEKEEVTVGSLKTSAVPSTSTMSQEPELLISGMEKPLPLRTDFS

| dissociation rate constant koff (human STING; [1]) [s⁻¹] | kon (human STING; [1]) [M⁻¹ s⁻¹] | Kd (human STING; SPR) [µM] | Structure (SMILES) | production of IFN-β (ELISA) (THP-1 cells) | kon (human STING) [M⁻¹ s⁻¹] |
| --- | --- | --- | --- | --- | --- |
| 0.002649 | 349 | 7.58 | Cc1cn([C@@H]2O[C@@H]3COP(=O)(O)O[C@@H]4[C@H](O)[C@@H](COP(=O)(O)O[C@H]3[C@H]2O)O[C@H]4n2cnc3c(=O)[nH]c(N)nc32)c(=O)[nH]c1=O [Compound 8a, 2′,3′-cyclic-guanosine-5-methyluridine] |  |  |
| 1.397e-05 | 152 | 0.092 | Cc1cn(C2OC3COP(=O)(O)OC4C(O)C(COP(=O)(O)OC3C2O)OC4n2cnc3c(=O)[nH]c(N)nc32)c(=O)nc1N (stereo not shown) [Compound 8c, 2′,3′-cyclic-guanosine-5-methylcytidine] |  |  |
| 0.002431 | 208 | 11.7 | Cc1cn([C@@H]2O[C@@H]3COP(=O)(O)O[C@H]4[C@@H](O)[C@H](n5cnc6c(N)ncnc65)O[C@@H]4COP(=O)(O)O[C@@H]2[C@@H]3O)c(=O)[nH]c1=O [Compound 12a, 2′,3′-cyclic-5-methyluridine-adenosine] |  |  |
| 0.0007331 | 198 | 3.7 | Cc1cn([C@@H]2O[C@@H]3COP(=O)(O)O[C@H]4[C@@H](O)[C@H](n5cnc6c(N)ncnc65)O[C@@H]4COP(=O)(O)O[C@@H]2[C@@H]3O)c(=O)nc1N [Compound 12c, 2′,3′-cyclic-5-methylcytidine-adenosine] |  |  |

| Structure (SMILES) | dissociation rate constant koff (human STING; [1]) [s⁻¹] | kon (human STING; [1]) [M⁻¹ s⁻¹] | Kd (human STING; SPR) [µM] | production of IFN-β (ELISA) (THP-1 cells) | kon (human STING) [M⁻¹ s⁻¹] |
| --- | --- | --- | --- | --- | --- |
| Cc1cn([C@@H]2O[C@@H]3COP(O)(=S)O[C@@H]4[C@H](O)[C@@H](COP(O)(=S)O[C@H]3[C@H]2O)O[C@H]4n2cnc3c(=O)[nH]c(N)nc32)c(=O)[nH]c1=O (stereo partly shown) [Compound 8b, 2′,3′-cyclic-guanosine(PS)-5-methyluridine(PS)] | 0.0001339 |  |  | more IFN-β than the corresponding phosphodiester analogs | 233 |
| Cc1cn([C@@H]2O[C@@H]3COP(O)(=S)O[C@H]4[C@@H](O)[C@H](n5cnc6c(N)ncnc65)O[C@@H]4COP(O)(=S)O[C@@H]2[C@@H]3O)c(=O)[nH]c1=O (stereo partly shown) [Compound 12b, 2′,3′-cyclic-5-methyluridine(PS)-adenosine(PS)] | 0.0009865 | 289 | 3.41 | more IFN-β than the corresponding phosphodiester analogs |  |

Reference: article PMC7697705, “Design, Synthesis and Biological Evaluation of (2′,5′ and 3′5′-Linked) cGAMP Analogs that Activate Stimulator of Interferon Genes (STING)” (Molecules, 2020)
